For 24 molecules, IC50 results are on record in patent publication US12729192B2, “CDK9 inhibitor and use thereof” (PHARMABLOCK SCIENCES (NANJING), INC., priority 2020, dated 2026).

The structures appear in SMILES notation. A value given as a limit tells only on which side of the number the result lay.

Holding throughout (format): biochemical
Conditions in all cases: 10 μM ATP, 2 h at room temperature

One test has as its target T1, CDK2 (Homo sapiens, UniProt P24941).
T1 construct: purchased Carna Biosciences, Inc
Kind of test: CDK2 kinase activity inhibition (ADP-Glo). On the procedure: (§1) CDK9 kinase was manufactured by the company or commercially available. CDK1, CDK2 and CDK7 were purchased from Carna Biosciences, Inc. ADP-Glo™ kit was purchased from Promega Corporation. Dithiothreitol (DTT), Tween-20, dimethylsulfoxide (DMSO), bovine serum albumin (BSA) and Tris base were obtained from Sigma at the available highest level of purity.
(§2) General procedures for CDK inhibition determination: The determination was performed in a buffer consisting of 50 μM DTT, 0.1% BSA, 40 mM Tris-HCl pH=7.5 and 20 mM MgCl2. The compound dissolved in DMSO and CDK enzymes were diluted with the buffer. 1 μL of the compound solution in 5% DMSO and 2 μL of the CDK enzyme solution were added to a white low-volume 384-well microtiter plate and incubated for 20 min at room temperature. Ultra pure ATP and the substrate polypeptide (purchased from GenScript Biotech Corporation) were diluted together into the buffer and added to a mixed solution of the compound and the enzyme, 2 μL per well. They were incubated for 2 h at room temperature.
(§3) After the reaction was completed, 5 μL of ADP-Glo™ reagent was added to each well and incubated for 40 min at room temperature, and then 10 μL of test reagent was added to each well and incubated for 30 mi at room temperature. Chemical luminescence values were measured by using a Tecan (Männedorf, Switzerland) multifunctional plate reader Spark for plate reading. The IC50 value of the inhibitor was obtained by fitting the chemical luminescence intensity ratio in the S-shaped dosage reaction curve using Prism 7 (La Jolla, 15 CA) relative to the concentration of the inhibitor.

For the next test, the target named is CDK9 (Homo sapiens, UniProt P50750). Kind of test: CDK9 kinase activity inhibition (ADP-Glo). On the procedure: as §1, §2, §3
CDK9, sequence (P50750 whole entry): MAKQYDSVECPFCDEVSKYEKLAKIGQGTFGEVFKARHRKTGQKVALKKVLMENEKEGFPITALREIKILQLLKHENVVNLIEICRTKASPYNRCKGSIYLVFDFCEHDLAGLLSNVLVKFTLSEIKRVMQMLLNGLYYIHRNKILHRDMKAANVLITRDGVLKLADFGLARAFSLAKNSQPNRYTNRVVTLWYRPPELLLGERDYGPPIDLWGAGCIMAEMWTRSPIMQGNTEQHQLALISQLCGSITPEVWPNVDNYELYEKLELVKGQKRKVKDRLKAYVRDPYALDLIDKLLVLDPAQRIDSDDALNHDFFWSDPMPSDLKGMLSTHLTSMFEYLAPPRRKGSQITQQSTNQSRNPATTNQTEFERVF
CDK9, sequence (O60563 whole entry partner): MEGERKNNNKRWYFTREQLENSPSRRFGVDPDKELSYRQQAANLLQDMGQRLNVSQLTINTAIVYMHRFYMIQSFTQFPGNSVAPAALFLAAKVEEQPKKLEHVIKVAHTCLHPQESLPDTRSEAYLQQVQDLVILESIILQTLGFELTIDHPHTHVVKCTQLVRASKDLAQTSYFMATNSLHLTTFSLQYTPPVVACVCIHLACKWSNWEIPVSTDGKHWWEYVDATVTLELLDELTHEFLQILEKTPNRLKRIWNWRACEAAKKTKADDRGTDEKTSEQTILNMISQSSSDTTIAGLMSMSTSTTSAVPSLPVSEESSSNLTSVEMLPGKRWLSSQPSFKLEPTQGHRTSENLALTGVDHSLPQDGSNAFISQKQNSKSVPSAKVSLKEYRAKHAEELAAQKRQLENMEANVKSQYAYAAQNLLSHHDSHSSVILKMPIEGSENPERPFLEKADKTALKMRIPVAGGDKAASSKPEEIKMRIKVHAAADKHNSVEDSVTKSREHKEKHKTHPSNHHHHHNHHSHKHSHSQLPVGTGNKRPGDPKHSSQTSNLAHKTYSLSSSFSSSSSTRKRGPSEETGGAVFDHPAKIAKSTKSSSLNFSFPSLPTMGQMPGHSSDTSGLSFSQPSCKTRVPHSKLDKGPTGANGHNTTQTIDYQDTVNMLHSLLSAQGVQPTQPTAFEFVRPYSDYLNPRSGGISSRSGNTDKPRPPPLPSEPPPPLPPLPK
A further test deals with T2, CDK7 (Homo sapiens, UniProt P50613).
T2 construct: purchased Carna Biosciences, Inc
T2 sequence (P50613 whole entry): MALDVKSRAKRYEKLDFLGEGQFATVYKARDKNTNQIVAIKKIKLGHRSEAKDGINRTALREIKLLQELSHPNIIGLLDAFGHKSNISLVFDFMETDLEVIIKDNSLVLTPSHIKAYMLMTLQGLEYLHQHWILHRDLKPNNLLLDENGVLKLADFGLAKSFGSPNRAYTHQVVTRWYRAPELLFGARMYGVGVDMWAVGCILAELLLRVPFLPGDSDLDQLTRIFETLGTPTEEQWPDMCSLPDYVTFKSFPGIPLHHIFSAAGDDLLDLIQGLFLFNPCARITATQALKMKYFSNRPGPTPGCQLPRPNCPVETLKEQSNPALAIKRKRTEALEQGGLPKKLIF
T2 sequence (P51946 whole entry partner): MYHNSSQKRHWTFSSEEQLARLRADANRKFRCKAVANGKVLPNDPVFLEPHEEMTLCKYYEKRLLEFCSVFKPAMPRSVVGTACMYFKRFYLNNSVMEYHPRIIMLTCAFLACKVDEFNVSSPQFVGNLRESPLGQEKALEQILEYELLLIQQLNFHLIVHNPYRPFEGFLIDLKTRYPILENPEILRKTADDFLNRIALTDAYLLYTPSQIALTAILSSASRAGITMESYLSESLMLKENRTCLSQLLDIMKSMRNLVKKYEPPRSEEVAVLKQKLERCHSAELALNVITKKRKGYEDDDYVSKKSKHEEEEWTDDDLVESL
T2 sequence (P51948 whole entry partner): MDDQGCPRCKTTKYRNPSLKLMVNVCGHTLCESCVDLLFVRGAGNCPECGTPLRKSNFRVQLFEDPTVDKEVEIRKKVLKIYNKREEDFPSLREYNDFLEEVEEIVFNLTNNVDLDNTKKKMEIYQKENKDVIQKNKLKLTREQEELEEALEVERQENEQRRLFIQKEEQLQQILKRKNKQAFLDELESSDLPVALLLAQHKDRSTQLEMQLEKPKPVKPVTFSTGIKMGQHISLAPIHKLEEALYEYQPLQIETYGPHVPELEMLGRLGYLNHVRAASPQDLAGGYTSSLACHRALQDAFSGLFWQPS
Briefly: CDK7 kinase activity inhibition (ADP-Glo). On the procedure: as §1, §2, §3

For `CC(=O)NC[C@H]1CCC(F)(F)CN1C(=O)c1nc(Nc2cc3[nH]ccc3cn2)ccc1C` [Compound 12, (R)—N-((1-(6-((1H-pyrrolo[3,2-c]pyridin-6-yl)amino)-3-methylpyridine-2-carbonyl)-5,5-difluoropiperidin-2-yl)methyl)acetamide], the values for the IC50 against CDK2, against CDK9 and against CDK7 were above 10000 nM, 163 nM and above 10000 nM, respectively.

As for `CC(=O)NC[C@H]1CCC(F)(F)CN1C(=O)c1nc(Nc2cc(C(C)(C)C)sn2)ccc1C` [Compound 13, (R)—N-((1-(6-((5-(t-butyl)isothiazol-3-yl)amino)-3-methylpyridine-2-carbonyl)-5,5-difluoropiperidin-2-yl)methyl)acetamide], the IC50 against CDK2 is 704 nM; on CDK9 it was 64 nM; against CDK7 it was above 10000 nM.

For the molecule `CC(=O)NC[C@H]1CCC(F)(F)CN1C(=O)c1nc(Nc2cc(-c3cnn4c3CCC4)ccn2)ccc1C` [Compound 18, (R)—N-((1-(6-((4-(5,6-dihydro-4H-pyrrolo[1,2-b]pyrazol-3-yl)pyridin-2-yl)amino)-3-methylpyridine-2-carbonyl)-5,5-difluoropiperidin-2-yl)methyl)acetamide], the 50% inhibitory concentration (IC50) against CDK2 was determined as 3310 nM; at CDK9, 33.6 nM.

Turning to `CC(=O)NC[C@H]1CCC(F)(F)CN1C(=O)c1nc(Nc2cc(C3CCCC3)ccn2)ccc1C` [Compound 20, (R)—N-((1-(6-((4-cyclopentylpyridin-2-yl)amino)-3-methylpyridine-2-carbonyl)-5,5-difluoropiperidin-2-yl)methyl)acetamide], the values for the IC50 on CDK2 and against CDK9 were 1230 nM and 44.1 nM, respectively.

As to `CC(=O)NC[C@H]1CCC(F)(F)CN1C(=O)c1nc(Nc2cc(N3CCCC3)ccn2)ccc1C` [Compound 21, (R)—N-((5,5-difluoro-1-(3-methyl-6-((4-(pyrrolidin-1-yl)pyridin-2-yl)amino)pyridine-2-carbonyl)piperidin-2-yl)methyl)acetamide], the IC50 on CDK2 was above 10000 nM; at CDK9, 182 nM.

`CC(=O)NC[C@H]1CCC(F)(F)CN1C(=O)c1nc(Nc2ncccn2)ccc1C` [Compound 23, (R)—N-((5,5-difluoro-1-(3-methyl-6-(pyrimidin-2-ylamino)pyridine-2-carbonyl)piperidin-2-yl)methyl)acetamide]: the figures for the IC50 against CDK2 and against CDK9 were above 10000 nM and 4620 nM, respectively.

In the case of `CC(=O)NC[C@H]1CCC(F)(F)CN1C(=O)c1nc(Nc2ccncn2)ccc1C` [Compound 25, (R)—N-((5,5-difluoro-1-(3-methyl-6-(pyrimidin-4-ylamino)pyridine-2-carbonyl)piperidin-2-yl)methyl)acetamide], the IC50 against CDK2 was above 10000 nM; on CDK9 it was 218 nM.

Consider `CC(=O)NC[C@H]1CCC(F)(F)CN1C(=O)c1nc(Nc2cnccn2)ccc1C` [Compound 26, (R)—N-((5,5-difluoro-1-(3-methyl-6-(pyrazin-2-ylamino)pyridine-2-carbonyl)piperidin-2-yl)methyl)acetamide], for which the values for the IC50 at CDK2 and on CDK9 were 3610 nM and 17.8 nM, respectively.

As to `CC(=O)NC[C@H]1CCC(F)(F)CN1C(=O)c1nc(Nc2ncccc2OC(F)(F)F)ccc1C` [Compound 29, (R)—N-((5,5-difluoro-1-(3-methyl-6-((3-(trifluoromethoxy)pyridin-2-yl)amino)pyridine-2-carbonyl)piperidin-2-yl)methyl)acetamide], the IC50 was above 10000 nM against CDK2 and 5710 nM against CDK9.

Take `CCOc1ccnc(Nc2ccc(C)c(C(=O)N3CC(F)(F)CC[C@@H]3CN)n2)c1` [Compound 37, (R)-(2-(aminomethyl)-5,5-difluoropiperidin-1-yl)(6-((4-ethoxypyridin-2-yl)amino)-3-methylpyridin-2-yl)methanone]: the IC50 at CDK2 turned out to be 3560 nM; at CDK9 it was 26.6 nM.

In the case of `Cc1ccc(Nc2cc(OC(F)(F)F)ccn2)nc1C(=O)N1CCCC(F)(F)CC1` [Compound 38, (4,4-Difluoroazepin-1-yl)(3-methyl-6-((4-(trifluoromethoxy)pyridin-2-yl)amino)pyridin-2-yl)methanone], the results for the IC50 against CDK2 and at CDK9 were 447 nM and 267 nM, respectively.

Turning to `CC(=O)N[C@@H]1CN(C(=O)c2nc(Nc3cc(OC(F)(F)F)ccn3)ccc2C)CC(F)(F)C1` [Compound 42, (S)—N-(5,5-difluoro-1-(3-methyl-6-((4-(trifluoromethoxy)pyridin-2-yl)amino)pyridine-2-carbonyl)piperidin-3-yl)acetamide], the concentration for half-maximal inhibition (IC50) against CDK2 was 361 nM; at CDK9, 34.8 nM.

With `CC(=O)N[C@H]1CN(C(=O)c2nc(Nc3cc(OC(F)(F)F)ccn3)ccc2C)CC(F)(F)C1` [Compound 43, (R)—N-(5,5-difluoro-1-(3-methyl-6-((4-(trifluoromethoxy)pyridin-2-yl)amino)pyridine-2-carbonyl)piperidin-3-yl)acetamide], the results for the IC50 against CDK2 and at CDK9 were above 10000 nM and 167 nM, respectively.

Regarding `CC(=O)NCC1CCC(F)(F)CN1C(=O)c1nc(Nc2cc(OC(F)(F)F)ccn2)ccc1C` (centres unmarked) [Compound 44, N-((5,5-difluoro-1-(3-methyl-6-((4-(trifluoromethoxy)pyridin-2-yl)amino)pyridine-2-carbonyl)piperidin-2-yl)methyl)acetamide], the concentration for half-maximal inhibition (IC50) against CDK2 came to 679 nM; against CDK9 it was 23 nM.

In the case of `CC(=O)NC[C@H]1CCCCN1C(=O)c1nc(Nc2cc(OC(F)(F)F)ccn2)ccc1C` [Compound 45, (R)—N-((1-(3-methyl-6-((4-(trifluoromethoxy)pyridin-2-yl)amino)pyridine-2-carbonyl)piperidin-2-yl)methyl)acetamide], the IC50 turned out to be 884 nM on CDK2 and 19.9 nM against CDK9.

On to `CCNC(=O)C1CCC(F)(F)CN1C(=O)c1nc(Nc2cc(OC(F)(F)F)ccn2)ccc1C` (centres unmarked) [Compound 49, N-ethyl-5,5-difluoro-1-(3-methyl-6-((4-(trifluoromethoxy)pyridin-2-yl)amino)pyridine-2-carbonyl)piperidine-2-carboxamide], for which the IC50 on CDK2 worked out at 3210 nM; against CDK9 it was 107 nM.

`CC(=O)N[C@@H]1C[C@H](NC(=O)c2nc(Nc3cc(OC(F)(F)F)ccn3)ccc2C)CC(F)(F)C1` [Compound 50, N-((1S,5R)-5-acetamido-3,3-difluorocyclohexyl)-3-methyl-6-((4-4-trifluoromethoxypyridin-2-yl)amino)pyridine-2-carbonylamide]: the IC50 is above 10000 nM against CDK2 and 573 nM on CDK9.

`CC(=O)N(C)C[C@H]1CCC(F)(F)CN1C(=O)c1nc(Nc2cc(OC(F)(F)F)ccn2)ccc1C` [Compound 52, (R)—N-((5,5-difluoro-1-(3-methyl-6-((4-(trifluoromethoxy)pyridin-2-yl)amino)pyridine-2-carbonyl)piperidin-2-yl)methyl)-N-methylacetamide]: the IC50 against CDK2 was determined as 658 nM; against CDK9 it was 14.6 nM.

In the case of `CNC(=O)c1ccnc(Nc2ccc(C)c(C(=O)N3CC(F)(F)CC[C@@H]3CNC(C)=O)n2)c1` [Compound 55, (R)-2-((6-(2-(acetamidomethyl)-5,5-difluoropiperidine-1-carbonyl)-5-methylpyridin-2-yl)amino)-N-methyl isonicotinamide], the IC50 against CDK2 was above 10000 nM; against CDK9, 28.3 nM.

For `CC(=O)NC[C@H]1CCC(F)(F)CN1S(=O)(=O)c1cc(Nc2cc(OC(F)(F)F)ccn2)ccc1C` [Compound 58, (R)—N-((5,5-difluoro-1-((2-methyl-5-((4-(trifluoromethoxy)pyridin-2-yl)amino)phenyl)sulfonyl)piperidin-2-yl)methyl)acetamide], the IC50 against CDK2 and on CDK9 was above 10000 nM throughout.

For `CC(=O)NC[C@H]1CCC(F)(F)CN1Cc1nc(Nc2cc(OC(F)(F)F)ccn2)ccc1C` [Compound 62, (R)—N-((5,5-difluoro-1-((3-methyl-6-((4-(trifluoromethoxy)pyridin-2-yl)amino)pyridin-2-yl)methyl)piperidin-2-yl)methyl)acetamide], the IC50 was above 10000 nM against CDK2 and 531 nM at CDK9.

With `CC(C)(C)OC(=O)NC[C@H]1CCC(F)(F)CN1C(=O)c1nc(Nc2cc(OC(F)(F)F)ccn2)ccc1F` [Compound 66], the IC50 against CDK2 was determined as 1260 nM; on CDK9 it was 647 nM.

In the case of `CC(=O)NC[C@H]1CCC(F)(F)CN1C(=O)c1cc(Nc2cc(OC(F)(F)F)ccn2)ncc1C` [Compound 72, (R)—N-((5,5-difluoro-1-(5-methyl-2-((4-(trifluoromethoxy)pyridin-2-yl)amino)isonicotinoyl)piperidin-2-yl)methyl)acetamide], the IC50 against CDK2 was above 10000 nM; against CDK9, 1310 nM.

In the case of `CC(=O)NC[C@H]1CCC(F)(F)CN1C(=O)c1nc(Nc2cc(OC(F)(F)F)ccn2)ncc1C` [Compound 76, (R)—N-((5,5-difluoro-1-(5-methyl-2-((4-(trifluoromethoxy)pyridin-2-yl)amino)pyrimidine-4-carbonyl)piperidin-2-yl)methyl)acetamide], the results for the IC50 against CDK2 and against CDK9 were 5780 nM and 18.4 nM, respectively.
